Source: article PMC12382614, “(Oxidopyridyl)Porphyrins of Different Lipophilicity: Photophysical Properties, ROS Production and Phototoxicity on Melanoma Cells Under CoCl2-Induced Hypoxia” (Antioxidants, 2025)
Read-outs that look alike come from different tables or passages of the source.

Columns and labels:
HDF = assay: Photocytotoxicity, MTT assay; assay type: cell-based, human; details: 6 h incubation, red light 643 nm 30 min
Method: (§1) For (photo)cytotoxicity assays, stock solutions of porphyrins were prepared in DMSO and dissolved in DMEM to the final concentrations. The porphyrin incubation time was 6h. Irradiation of the cells was with red light (λ = 643 nm) for 30 min (light dose, 3.6 J/cm^2). Nonirradiated cells were used to test the dark toxicity. All measurements were performed in three individual experiments, and the results are shown as the proliferation (%) of the cells and were calculated as IC50 values.
(§2) The cytotoxicity of (oxidopyridyl)porphyrins was assessed by an MTT assay on the HDF, MeWo and A375 cell lines after 6 h of incubation with porphyrins, without irradiation, or after 30 min of irradiation with red light (λ = 643 nm), and under conditions of normoxia or hypoxia. To induce hypoxia, 100 µM of CoCl2 was added at least two hours before the porphyrins. […] Oxygen is also one of the substrates for the activity of prolyl hydroxylases; therefore, in both cases, the result is the blockage of hydroxylation of HIF-1α and, consequently, its increase and stabilisation, which, in the case of CoCl2-induced hypoxia, can be maintained for several hours.

MeWo = assay: Photocytotoxicity, MTT assay; assay type: cell-based, human; details: red light 643 nm 30 min; for IC50: 6 h incubation; for SI (IC50 (HDF) / IC50 (melanoma cells)) MeWo 100 µM CoCl2: CoCl2-induced hypoxia; for SI (IC50 (HDF) / IC50 (melanoma cells)) MeWo No CoCl2: normoxia
Method: as §1, §2

A375 = assay: Photocytotoxicity, MTT assay; assay type: cell-based, human; details: red light 643 nm 30 min; for IC50: 6 h incubation; for SI (IC50 (HDF) / IC50 (melanoma cells)) A375 100 µM CoCl2: CoCl2-induced hypoxia; for SI (IC50 (HDF) / IC50 (melanoma cells)) A375 No CoCl2: normoxia
Method: as §1, §2

[1] = UV-Vis absorption spectra in MeOH; assay type: physicochemical
Method: (§3) The absorption spectra of (oxidopyridyl)porphyrins were recorded in HPLC grade MeOH on a Cary UV 60 (Agilent Technologies, Santa Clara, CA, USA), in a wavelength range of 300–700 nm. The fluorescence spectra in HPLC grade MeOH were recorded on a Cary Eclipse (Agilent Technologies) in a wavelength range of 500–800 nm after excitation at the Soret band wavelength (λ ~ 420 nm). The slits of the spectrometer were set to a bandpass of 5 nm for the excitation and 5 nm for the emission. To calculate the fluorescence quantum yields, the measurements were conducted on an FS5 Edinburgh Instruments spectrometer. Prior to taking the measurements, the solutions were purged with high-purity N2 for at least 15 min. The absorbance of the solutions was set to A < 0.1 at 405 nm and 550 nm, which settings were used for the excitation process. Emission was recorded from 550 to 800 nm, with slits set to the bandpass corresponding to 2 nm for the excitation, and 3 nm for the emission. Fluorescence quantum yield (ΦFL) was calculated in comparison to the tetraphenylporphyrin (TPP; ΦFL = 0.11 [23]) as a standard, according to Equation (S1) and following an equation previously described elsewhere.

[2] = Fluorescence spectra and fluorescence quantum yield in MeOH; assay type: physicochemical; details: excitation at Soret band
Method: as §3

[3] = tested on: HDF, MeWo and A375 cell lines; assay: (Photo)cytotoxicity MTT assay, statements made for all cell lines; assay type: cell-based, human; details: irradiation 643 nm
Method: as §1, §2

[4] = Homo sapiens, HDF, light or radiation study, 3.6 J/cm^2, 100 μM CoCl2 at least 2 h before porphyrin, read-out: IC50 HDF CoCl2
[5] = Homo sapiens, HDF, light or radiation study, 3.6 J/cm^2, normoxia, read-out: IC50 HDF No CoCl2
[6] = Homo sapiens, MeWo, light or radiation study, 3.6 J/cm^2, 100 μM CoCl2 at least 2 h before porphyrin, read-out: IC50 MeWo CoCl2
[7] = Homo sapiens, MeWo, light or radiation study, 3.6 J/cm^2, normoxia, read-out: IC50 MeWo No CoCl2
[8] = Homo sapiens, A-375, light or radiation study, 3.6 J/cm^2, 100 μM CoCl2 at least 2 h before porphyrin, read-out: IC50 A375 CoCl2
[9] = Homo sapiens, A-375, light or radiation study, 3.6 J/cm^2, normoxia, read-out: IC50 A375 No CoCl2
[10] = 3.6 J/cm^2, 100 μM CoCl2 at least 2 h before porphyrin, read-out: IC50 HDF CoCl2
[11] = 3.6 J/cm^2, normoxia, read-out: IC50 HDF No CoCl2
[12] = 3.6 J/cm^2, 100 μM CoCl2 at least 2 h before porphyrin, read-out: IC50 MeWo CoCl2
[13] = 3.6 J/cm^2, normoxia, read-out: IC50 MeWo No CoCl2
[14] = 3.6 J/cm^2, 100 μM CoCl2 at least 2 h before porphyrin, read-out: IC50 A375 CoCl2
[15] = 3.6 J/cm^2, normoxia, read-out: IC50 A375 No CoCl2

SMILES | IC50 (HDF; [4]) | IC50 (HDF; [5]) | IC50 (MeWo; [6]) | IC50 (MeWo; [7]) | SI (IC50 (HDF) / IC50 (melanoma cells)) MeWo 100 µM CoCl2 (MeWo) | SI (IC50 (HDF) / IC50 (melanoma cells)) MeWo No CoCl2 (MeWo) | IC50 (A375; [8]) | IC50 (A375; [9]) | SI (IC50 (HDF) / IC50 (melanoma cells)) A375 100 µM CoCl2 (A375) | SI (IC50 (HDF) / IC50 (melanoma cells)) A375 No CoCl2 (A375) | ε Qx (0-0) [1] | ε Qx (1-0) [1] | ε Qy (0-0) [1] | ε Qy (1-0) [1] | ε Soret (B) [1] | λabs Qx (0-0) [1] | λabs Qx (1-0) [1] | λabs Qy (0-0) [1] | λabs Qy (1-0) [1] | λabs Soret (B) [1] | also measured
CCCCCCCCCCCCCC(=O)Nc1ccc(-c2c3nc(c(-c4ccc[n+]([O-])c4)c4ccc([nH]4)c(-c4ccc[n+]([O-])c4)c4nc(c(-c5ccc[n+]([O-])c5)c5ccc2[nH]5)C=C4)C=C3)cc1 [TOPyP3-C13H27, 5-(4-Tetradecanamidophenyl)-10,15,20-tris(1-oxido-3-pyridyl)porphyrin] | 2.62 ± 0.19 µM | 0.86 ± 0.04 µM | 1.79 ± 0.37 µM | 1.04 ± 0.09 µM | 1.5 | 0.8 | 0.86 ± 0.06 µM | 0.78 ± 0.17 µM | 3.0 | 1.1 | 2000 M⁻¹ cm⁻¹ | 6000 M⁻¹ cm⁻¹ | 5800 M⁻¹ cm⁻¹ | 19300 M⁻¹ cm⁻¹ | 364600 M⁻¹ cm⁻¹ | 646 nm | 588 nm | 547 nm | 512 nm | 417 nm | λFL Q(0,0) [2]: 648 nm; λFL Q(0,1) [2]: 713 nm
CCCCCCCCCCCCCC(=O)Nc1ccc(-c2c3nc(c(-c4ccc[n+](C)c4)c4ccc([nH]4)c(-c4ccc[n+](C)c4)c4nc(c(-c5ccc[n+](C)c5)c5ccc2[nH]5)C=C4)C=C3)cc1 [TMPyP3-C13H27] | – | – | – | – | 1.6 | 1.9 | – | – | 4.5 | 5.4 | – | – | – | – | – | – | – | – | – | – | IC50 (HDF; [10]): 0.99 ± 0.05 µM; IC50 (HDF; [11]): 0.81 ± 0.05 µM; IC50 (MeWo; [12]): 0.61 ± 0.16 µM; IC50 (MeWo; [13]): 0.43 ± 0.03 µM; IC50 (A375; [14]): 0.22 ± 0.08 µM; IC50 (A375; [15]): 0.15 ± 0.06 µM; IC50 ([3]; with or without CoCl2, read-out: IC50 in all the tested cells): ≤ 1 µM
CCCCCCCCCC(=O)Nc1ccc(-c2c3nc(c(-c4ccc[n+](C)c4)c4ccc([nH]4)c(-c4ccc[n+](C)c4)c4nc(c(-c5ccc[n+](C)c5)c5ccc2[nH]5)C=C4)C=C3)cc1 [TMPyP3-C9H19] | – | – | – | – | 1.3 | 2.0 | – | – | 9.0 | 10.6 | – | – | – | – | – | – | – | – | – | – | IC50 (HDF; [10]): 8.87 ± 0.02 µM; IC50 (HDF; [11]): 7.09 ± 0.66 µM; IC50 (MeWo; [12]): 6.81 ± 1.36 µM; IC50 (MeWo; [13]): 3.52 ± 0.65 µM; IC50 (A375; [14]): 0.99 ± 0.13 µM; IC50 (A375; [15]): 0.67 ± 0.03 µM
CCCCCCCCCC(=O)Nc1ccc(-c2c3nc(c(-c4ccc[n+]([O-])c4)c4ccc([nH]4)c(-c4ccc[n+]([O-])c4)c4nc(c(-c5ccc[n+]([O-])c5)c5ccc2[nH]5)C=C4)C=C3)cc1 [TOPyP3-C9H19, 5-(4-Decanamidophenyl)-10,15,20-tris(1-oxido-3-pyridyl)porphyrin] | 7.65 ± 0.06 µM | 3.49 ± 0.45 µM | 6.28 ± 0.82 µM | 5.46 ± 1.08 µM | 1.2 | 0.6 | 5.46 ± 1.48 µM | 3.87 ± 0.45 µM | 1.4 | 0.9 | 1500 M⁻¹ cm⁻¹ | 4900 M⁻¹ cm⁻¹ | 5100 M⁻¹ cm⁻¹ | 15400 M⁻¹ cm⁻¹ | 296400 M⁻¹ cm⁻¹ | 645 nm | 588 nm | 548 nm | 512 nm | 417 nm | phototoxicity / reduction of proliferation at 1 µM ([3]; 1 µM, normoxia or CoCl2-induced hypoxia): very low; λFL Q(0,0) [2]: 648 nm; λFL Q(0,1) [2]: 713 nm
